Results reported in patent publication US12492187B2, “Factor XI activation inhibitors” (Merck Sharp & Dohme LLC, priority 2020, dated 2025).
pEC50: −log10 of the molar value. Where a name gives a salt, the structure may show the parent alone.

What follows are compounds tested against T1, Human coagulation factor (F)XI (Homo sapiens, UniProt P03951) (assay: Inhibition of FXIIa mediated activation of FXI (activation of human Factor XI to XIa by human Factor α-XIIa)). Conditions: human FXI pre-incubated with compound 30 min at 22° C., activation by human FXIIa 60 min, z-GPR-AFC substrate, fluorescence 405/510 nm, 4 parameter logistic fit; read-out: Inhibition of FXIIa meditated activation of FXI.
T1 construct: purchased Haematologic Technologies Inc. (FXI); Enzyme Research Laboratories (FXIIa) HCXI-150 (FXI); HFXIIa (FXIIa)
T1 sequence (P03951 19-625): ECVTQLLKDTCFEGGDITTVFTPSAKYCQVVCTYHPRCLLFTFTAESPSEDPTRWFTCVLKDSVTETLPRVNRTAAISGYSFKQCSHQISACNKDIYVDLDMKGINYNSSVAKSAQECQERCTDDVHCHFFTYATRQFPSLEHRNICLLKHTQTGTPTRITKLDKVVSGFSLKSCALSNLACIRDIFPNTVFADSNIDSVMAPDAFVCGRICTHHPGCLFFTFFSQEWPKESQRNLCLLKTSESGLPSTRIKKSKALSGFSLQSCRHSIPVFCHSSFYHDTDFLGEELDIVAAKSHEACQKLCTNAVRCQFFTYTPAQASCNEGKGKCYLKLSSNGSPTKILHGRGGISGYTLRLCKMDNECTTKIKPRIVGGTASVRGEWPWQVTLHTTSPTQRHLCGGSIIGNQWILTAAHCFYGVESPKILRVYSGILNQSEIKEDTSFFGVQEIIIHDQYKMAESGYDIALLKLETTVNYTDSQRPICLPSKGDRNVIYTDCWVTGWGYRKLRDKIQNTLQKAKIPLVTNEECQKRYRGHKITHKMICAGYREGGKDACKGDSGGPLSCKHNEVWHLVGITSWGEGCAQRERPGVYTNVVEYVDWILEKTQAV
Assay type: biochemical
Experimental: Inhibition of FXIIa Mediated Activation of FXI
Activation of Human Factor XI to XIa by Human Factor α-XIIa
Assay was performed in 50 mM HEPES, 150 mM NaCl, 5 mM CaCl2, 0.1% PEG-8000, pH 7.4 buffer in black, flat-bottom, polystyrene microplates (Corning, Cat #3573). Serial dilutions (10-point, 3.333-fold) of the test compounds delivered as 10 mM DMSO stocks were prepared in the Labcyte Echo-qualified PP 384 well microplates (Labcyte, Cat #P-05525). Human coagulation factor (F)XI (Haematologic Technologies Inc., Cat #HCXI-150, concentration 46 nM, 19.5 uL) was pre-incubated with 0.5 uL of the test compounds for 30 min at 22° C. The activation was initiated by addition of 10 uL of human coagulation factor (F)XIIa (Enzyme Research Laboratories, Cat #HFXIIa, concentration 30 nM) and reaction proceeded for 60 min at 22° C., after which it was quenched by addition of a selective inhibitor of FXIIa (Compound 54 in WO2018093695) concentration 600 uM in DMSO, 1 uL). 10 min after the quench, 29 uL of z-GPR-AFC substrate (Sigma, Cat #C0980-10MG, concentration 200 uM) was added into each well and the detection reaction proceeded for 60 min at 22° C. Fluorescence at 405/510 nm was measured in end-point mode using an Envision plate-reader (Perkin Elmer). IDBS Activity Base XE (ABase) analysis using 4 parameter logistic fit was performed to determine Minimum, Maximum, EC50, and Slope Factor for each compound.
For Cc1cnc(C(=O)N2CCC(C#N)(c3ccccc3)CC2)cc1C(=O)N(CCC1(O)CCCC1)C1CCC1 [Example 7, 2-(4-cyano-4-phenylpiperidine-1-carbonyl)-N-cyclobutyl-N-(2-(1-hydroxycyclopentyl)ethyl)-5-methylisonicotinamide], the pEC50 was 7.36. In the case of N#CC1(c2ccccc2)CCN(C(=O)c2cc(C(=O)N3CCC(N4CCC(F)(F)C4)CC3)c(C(F)(F)F)cn2)CC1 [Example 18, 1-[4-[4-(3,3-difluoropyrrolidin-1-ium-1-yl)piperidine-1-carbonyl]-5-(trifluoromethyl)pyridine-2-carbonyl]-4-phenyl-piperidine-4-carbonitrile; 2,2,2-trifluoroacetate], the pEC50 was 7.40. Cc1cnc(C(=O)N2CCC(C#N)(c3ccccc3)CC2)cc1C(=O)N1CCC2c3ccc(C#N)cc3OC2C1 (stereo not drawn) [Example 22, 2-[2-(4-cyano-4-phenyl-piperidine-1-carbonyl)-5-methyl-pyridin-1-ium-4-carbonyl]-3,4,4a,9a-tetrahydro-1H-benzofuro[2,3-c]pyridine-7-carbonitrile; 2,2,2-trifluoroacetate] showed a pEC50 of 7.26. Compound Cc1cnc(C(=O)N2CCC(C#N)(c3ccccc3)CC2)cc1C(=O)N1CC(c2ccccc2)C1 [Example 8, 1-(5-methyl-4-(3-phenylazetidine-1-carbonyl)picolinoyl)-4-phenylpiperidine-4-carbonitrile] has a pEC50 of 6.92. In the case of Cc1cnc(C(=O)N2CCC(C#N)(c3ccccc3)CC2)cc1C(=O)N1CCC(Cc2ccccc2)CC1 [Example 10, 1-(4-(4-benzylpiperidine-1-carbonyl)-5-methylpicolinoyl)-4-phenylpiperidine-4-carbonitrile], the pEC50 was 7.13. For N#CC1(c2ccccc2)CCN(C(=O)c2cc(C(=O)N3CCC4c5ccccc5OC4C3)c(C(F)(F)F)cn2)CC1 (stereo not drawn) [Example 16, 1-(4-(1,2,3,4,4a,9a-hexahydrobenzofuro[2,3-c]pyridine-2-carbonyl)-5-(trifluoromethyl)picolinoyl)-4-phenylpiperidine-4-carbonitrile], the pEC50 was 6.97. Cc1cnc(C(=O)N2CCC(C#N)(c3ccccc3)CC2)cc1C(=O)N1CCC(C)(N2CCC(F)(F)C2)CC1 [Example 3, 1-(4-(4-(3,3-difluoropyrrolidin-1-yl)-4-methylpiperidine-1-carbonyl)-5-methylpicolinoyl)-4-phenylpiperidine-4-carbonitrile] showed a pEC50 of 7.21. Cc1cnc(C(=O)N2CCC(C#N)(c3ccccc3)CC2)cc1C(=O)N1CC2CC(C1)C2(F)c1ccccc1 (stereo not drawn) [Example 12, 1-(4-(6-fluoro-6-phenyl-3-azabicyclo[3.1.1]heptane-3-carbonyl)-5-methylpicolinoyl)-4-phenylpiperidine-4-carbonitrile] showed a pEC50 of 6.86. Compound Cc1cnc(C(=O)N2CCC(C#N)(c3ccccc3)CC2)cc1C(=O)N1CCC(c2ccccc2)CC1 [Example 5, 1-(5-methyl-4-(4-phenylpiperidine-1-carbonyl)picolinoyl)-4-phenylpiperidine-4-carbonitrile] has a pEC50 of 7.52. Compound Cc1cnc(C(=O)N2CCC(C#N)(c3ccccc3)CC2)cc1C(=O)N1CCC2c3c(F)cc(F)cc3OC2C1 (stereo not drawn) [Example 19, 1-(4-(5,7-difluoro-1,2,3,4,4a,9a-hexahydrobenzofuro[2,3-c]pyridine-2-carbonyl)-5-methylpicolinoyl)-4-phenylpiperidine-4-carbonitrile] has a pEC50 of 7.31. With Cc1cnc(C(=O)N2CCC(C#N)(c3ccccc3)CC2)cc1C(=O)N1CC(c2cccc(F)c2)C1 [Example 4, 1-(4-(3-(3-fluorophenyl)azetidine-1-carbonyl)-5-methylpicolinoy1)-4-phenylpiperidine-4-carbonitrile] the pEC50 was 6.70. Cc1cnc(C(=O)N2CCC(C#N)(c3ccccc3)CC2)cc1C(=O)N1CCC(N2CCC(F)(F)C2)CC1 [Example 1, 1-(4-(4-(3,3-difluoropyrrolidin-1-yl)piperidine-1-carbonyl)-5-methylpicolinoyl)-4-phenylpiperidine-4-carbonitrile, 2,2,2-trifluoroacetate salt] gave a pEC50 of 7.38.
